Some test systems named below: UACC-257; COLO 205; HT-29; NCI-H226; IGROV-1; XF498; M14; UACC-62; OVCAR-4; TK-10; SNB-19; A549; A498; 786-0; RXF 393; MDA-N; MDA-MB-231; MDA-MB-435; NCI/ADR-RES; BT-549.
Assay in all cases: DTP human tumour cell line panel, 48 h

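Method: 48-hour compound exposure of cells in 96-well plates, five concentrations, linear interpolation of endpoints. Here, GI50 denotes the concentration required for 50% inhibition of growth.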 Active and inactive are the calls of the source. Cut-off read from the data, not from the text of the source: active = GI50 up to about 1.1 µM and inactive = higher.

The source of these data is ChEMBL document CHEMBL1201862, “PubChem BioAssay data set” (2004).

As a reminder, the GI50 is the concentration that inhibits growth by half. Consider `O=C(/C=C/c1ccccc1O)c1cccs1`, for which the GI50 with UACC-257, in the assay on COLO 205, in the assay with HT-29, in the assay with NCI-H226, in the assay on IGROV-1 and in the assay with XF498 was > 100 µM (inactive) in each case. The GI50 in the assay on M14, with UACC-62, in the assay with OVCAR-4, with TK-10, in the assay on SNB-19 and in the assay with A549 was > 100 µM (inactive) throughout. Further, the GI50 was 11.9 µM (inactive) in the assay with A498, > 100 µM (inactive) with 786-0 and > 100 µM (inactive) with RXF 393.

Regarding `CCCCCCCCCCCCCCCCCCOP(=O)([O-])OC1CC[N+](C)(C)CC1` [PERIFOSINE], the GI50 in the assay on UACC-257 is 19.8 µM (inactive); in the assay on COLO 205, 3.24 µM (inactive); in the assay with HT-29, 3.56 µM (inactive); in the assay with MDA-N, 12.4 µM (inactive); in the assay on NCI-H226, 11.2 µM (inactive); in the assay with MDA-MB-231, 6.89 µM (inactive). In addition, the GI50 was 2.18 µM (inactive) with IGROV-1; 15.7 µM (inactive) in the assay with XF498; 14.7 µM (inactive) with MDA-MB-435; 2.97 µM (inactive) with M14; 8.39 µM (inactive) in the assay with UACC-62; > 9.95 µM (inactive) in the assay with OVCAR-4. Further, the GI50 with TK-10 is 2.04 µM (inactive); with SNB-19, 9.25 µM (inactive); in the assay with A549 it was 10.7 µM (inactive); in the assay with NCI/ADR-RES it was 14 µM (inactive); in the assay on A498 it was 3.22 µM (inactive); with 786-0, 2.73 µM (inactive). Also, the GI50 in the assay with RXF 393 is 1.79 µM (inactive); with BT-549, 12.2 µM (inactive).

Regarding `COc1cc([C@@H]2c3cc4c(cc3[C@@H](NC(=O)c3cccc(N)c3)C3COC(=O)[C@@H]32)OCO4)cc(OC)c1O` (stereo partly drawn), the GI50 was 10.7 µM (inactive) with UACC-257; 11 µM (inactive) in the assay with COLO 205; 2.83 µM (inactive) in the assay with HT-29; 0.236 µM (active) in the assay on NCI-H226; 6.05 µM (inactive) in the assay with IGROV-1; 1.11 µM (active) in the assay on XF498. The GI50 in the assay with M14 was 1.26 µM (inactive); with UACC-62, 0.619 µM (active); in the assay on OVCAR-4, 17.4 µM (inactive); in the assay with TK-10 it was 3.31 µM (inactive); in the assay on SNB-19, 0.569 µM (active); in the assay on A549, 0.0465 µM (active). Also, the values for the GI50 in the assay on A498, with 786-0 and with RXF 393 were 0.76 µM (active), 0.421 µM (active) and 3.42 µM (inactive), respectively.

`Oc1cccc2nc3cc(CN4CCOCC4)c(CN4CCOCC4)cc3nc12`: the GI50 in the assay with UACC-257 is > 100 µM (inactive); in the assay with COLO 205 it was 56.9 µM (inactive); in the assay with HT-29 it was 48.8 µM (inactive); in the assay on NCI-H226, 68.7 µM (inactive); in the assay with IGROV-1, > 100 µM (inactive); in the assay with XF498, > 100 µM (inactive). Further, the GI50 in the assay on M14 is 18.7 µM (inactive); in the assay on UACC-62, 40.2 µM (inactive); in the assay on OVCAR-4 it was 67.3 µM (inactive); in the assay on TK-10, > 100 µM (inactive); in the assay on SNB-19, > 100 µM (inactive); with A549 it was 40.5 µM (inactive). The GI50 is > 100 µM (inactive) with A498, 59.7 µM (inactive) in the assay with 786-0 and 77.3 µM (inactive) in the assay with RXF 393.

Take `CC(=O)c1ccc2c(c1)c1c(C)c3c[n+](C)ccc3c(C)c1n2C`: the GI50 was 6.35 µM (inactive) in the assay on UACC-257; 9.57 µM (inactive) in the assay with COLO 205; 13.2 µM (inactive) in the assay on HT-29; 2.82 µM (inactive) in the assay with NCI-H226; 16.5 µM (inactive) in the assay on IGROV-1; 2.53 µM (inactive) in the assay with XF498. Further, the GI50 in the assay with UACC-62 was 1.87 µM (inactive); in the assay with OVCAR-4 it was 4.85 µM (inactive); in the assay on SNB-19, 1.07 µM (active); in the assay with A549, 13.9 µM (inactive); in the assay with NCI/ADR-RES, 8.55 µM (inactive); in the assay with A498 it was 6.41 µM (inactive). Besides, the GI50 in the assay with RXF 393 is 11.4 µM (inactive).

Consider `C[N+](C)(C)CC1CCc2ccccc2C1=O` (stereo not drawn), for which the GI50 was 12.2 µM (inactive) in the assay on UACC-257; 7.55 µM (inactive) in the assay with COLO 205; 6.03 µM (inactive) in the assay on HT-29; 5.86 µM (inactive) with MDA-N; 24.2 µM (inactive) with NCI-H226; 7.13 µM (inactive) in the assay on MDA-MB-231. The GI50 in the assay on IGROV-1 is 11.6 µM (inactive); in the assay on XF498 it was 2.39 µM (inactive); with MDA-MB-435 it was 5.62 µM (inactive); in the assay with M14, 5.87 µM (inactive); in the assay on UACC-62, 5.42 µM (inactive); in the assay with OVCAR-4 it was 4.75 µM (inactive). Moreover, the GI50 was 16.1 µM (inactive) in the assay with TK-10; 15.1 µM (inactive) in the assay on SNB-19; 26.3 µM (inactive) with A549; 10.6 µM (inactive) in the assay with NCI/ADR-RES; 26.2 µM (inactive) in the assay on A498; 6.46 µM (inactive) with 786-0. The results for the GI50 with RXF 393 and in the assay with BT-549 were 14.2 µM (inactive) and 15.5 µM (inactive), respectively.

As to `CNC(C)Cc1ccc(O)cc1` (stereo not drawn), the GI50 in the assay with UACC-257, in the assay on COLO 205, in the assay on HT-29, with NCI-H226, in the assay on IGROV-1 and with XF498 was > 100 µM (inactive) each time. Moreover, the GI50 in the assay on M14, in the assay on UACC-62, in the assay with OVCAR-4, in the assay with TK-10, in the assay on SNB-19 and with A549 was > 100 µM (inactive) in each case. In addition, the GI50 in the assay with A498, in the assay on 786-0 and in the assay with RXF 393 was > 100 µM (inactive) throughout.
